These results are taken from patent publication US20080125318A1, “Fungicidal Mixtures Containing Enestroburin and at Least One Active Substance from the Group of Azoles” (priority 2004, published 2008).

One experiment concerns Botrytis cinerea. The experiment can be described thus: Activity against the gray mold pathogen Botrytis cinerea in the microtiter test. In kind it is cell-based. Particulars: day 7 after inoculation, absorption 405 nm.
The subject of a further experiment is Phytophthora infestans. The class given is cell-based. Particulars: day 7 after inoculation, absorption 405 nm.
Another experiment relates to Puccinia recondita. Put plainly: Protective activity against Puccinia recondita on wheat (brown rust of wheat), greenhouse. The class given is in vivo, Puccinia recondita on wheat seedlings cultivar Kanzler. Particulars: sprayed 5 days before inoculation, visual rating.

Like-named read-outs stand apart in the source and are kept apart here.

`Cc1ccc(-c2c(Cl)nc(C#N)n2S(=O)(=O)N(C)C)cc1` [cyazofamid (II-30), 4-chloro-2-cyano-N,N-dimethyl-5-(4-methylphenyl)-1H-imidazole-1-sulfon-amide]: the “Observed efficacy (%)” value in the experiment with Botrytis cinerea (1 ppm single active compound) and in the experiment with Botrytis cinerea (4 ppm single active compound) was 0% throughout.

On to `CO/C=C(/C(=O)OC)c1ccccc1CO/N=C(C)/C=C/c1ccc(Cl)cc1` [enestroburin (I), methyl 2-{2-[3-(4-chlorophenyl)-1-methylallylideneaminooxymethyl]phenyl}-3-methoxyacrylate], for which the “Observed efficacy (%)” value came out at 48% in the experiment with Botrytis cinerea (4 ppm single active compound); 70% in the experiment on Phytophthora infestans (2 ppm single active compound); 82% in the experiment on Phytophthora infestans (4 ppm single active compound); 22% in the experiment with Puccinia recondita (16 ppm single active compound); 44% with Puccinia recondita (63 ppm single active compound).

For the compound `OC(Cc1ccccc1Cl)(Cn1nc[nH]c1=S)C1(Cl)CC1` (centres unmarked) [prothioconazole (II-19), 2-[2-(1-chlorocyclopropyl)-3-(2-chlorophenyl)-2-hydroxypropyl]-2,4-dihydro[1,2,4]triazol-3-thione], in the experiment with Puccinia recondita (4 ppm single active compound), the “Observed efficacy (%)” value amounted to 0%.
